The source of these data is patent publication US10946099B2, “Compositions for photodynamic therapy and fluorescence diagnosis of cancers and other diseases” (VISION GLOBAL HOLDINGS LIMITED, priority 2017, dated 2021).

Series [1] relates to HCT116 cells. Description: Intracellular ROS generation (cellrox reagent). Format: cell-based. Here is the method:
To examine intracellular ROS generation by PpIX and PpIX-TF conjugate (TF01), HCT116 cells were seeded in 24-well, glass-bottomed plate and incubated with cellrox reagent (Thermo Fisher Scientific). After 30 min, the cells were washed three times by PBS and treated with PpIX or PpIX-TF conjugate (TF01). After 24 h of incubation, the cells were washed twice with PBS and then exposed to a 10 mW/cm^2 using a 635-nm laser source for 30 min. After irradiation, the fluorescence intensity of cells was measured by a microplate reader with excitation/emission at 485/520 nm. The values are expressed as fluorescence intensity ratio to control.

The nature of series [2]: Fluorescence emission spectroscopy. Format: physicochemical. From the text:
A BMG fluostar spectrofluorophotometer was used to record fluorescent emissions of PpIX or PpIX-TF conjugate (referred to herein as TF01) suspended in aqueous buffer. A UV-vis spectrophotometer was used to record the absorbance spectra of PpIX and TF.

The nature of series [3]: Singlet oxygen / ROS generation by RNO bleaching. The series is classed as physicochemical. To be noted: relative to positive control methylene blue; RNO bleaching near 440 nm. As to the method:
To determine singlet oxygen generation, singlet oxygen detection method was applied to a 3 ml aqueous solution containing the singlet oxygen generator, 50 µM of RNO and 8 mM of imidazole. The detection for absorption intensity of RNO near 440 nm was monitored to reflect the production of ROS by a UV-vis spectrophotometer after time intervals of laser exposure.

Series [4] relates to colorectal carcinoma cell line HCT116. The series is described as follows: Cell uptake and imaging (fluorescence microscopy). Format: cell-based. As to the method: Cancer cells were used to detect and compare cellular uptake of PpIX and PpIX-TF conjugate (referred to herein as TF01) in vitro. The cells were cultured in medium supplemented with 10% fetal bovine serum at 37° C. and 5% CO2. After incubating cells with PpIX-TF conjugate (TF01), images were viewed by confocal microscopy.
FIG. 9 depicts the fluorescence microscopic analysis of cellular uptake of recombinant TF in a colorectal carcinoma cell line HCT116.

The test system of series [5] is HepG2. Description: Cell phototoxicity assay (MTT). Format: cell-based. Particulars: concentration greater than about 25 μg/ml. As to the method: (§1) To determine cell viability under dark conditions, cells (1×10^4 cells/well) were seeded onto 96-well plates and incubated for 24 h at 37° C. After cell stabilization, the culture medium was replaced with 100 μl of culture medium containing free PpIX or PpIX-TF conjugate (referred to herein as TF01), followed by incubation for 24 h. The cells were then washed twice with serum-free medium and cell viability was evaluated by MTT assay after 48 h. To determine the in vitro phototoxicity after laser irradiation, cells (1×10^4 cells/well) were seeded onto 96-well plates and incubated for 24 h at 37° C. The cells were then treated with free PpIX or a PpIX-TF conjugate (TF01). After 24 h incubation, the cells were washed twice with serum-free medium and irradiated at a light intensity of 150 mW/cm^2 using 450 nm or 627 nm LED light source for 30 min or 10 mW/cm^2 using a 635-nm laser source for 5-30 min (3 J/cm^2 to 18 J/cm^2). The cell viability of irradiated cells was evaluated by MTT assay after 24 h of incubation.
(§2) For each cancer cell line, measurements were performed in dark and in the presence of 450 nm blue laser light or 627 nm red light.

For series [6], the system named is HCT 116. The series is described as follows: Cell phototoxicity assay (MTT). To be noted: concentration greater than about 25 μg/ml. Format: cell-based. As to the method:
as §1, §2

For series [7], the system named is human hepatoma SK-HEP 1 xenograft. Description: In vivo PDT efficacy. To be noted: 400 mg/kg intravenously, followed by laser application (230 mW/cm^2, 260 J/cm^2, 635-nm); nude mice. As to the method: To test the in vivo PDT efficacy of PpIX-TF conjugate, nude mice bearing human hepatoma SK-HEP 1 xenograft were intravenously treated with PBS, 200 mg/kg or 400 mg/kg PpIX-TF conjugate (TF01) respectively (n=3-4 per group), followed by the laser application (at a light intensity 230 mW/cm^2, 260 J/cm^2, using a 635-nm laser source). Visible tumors were measured using two orthogonal measurements L and W (perpendicular to L), the volumes were calculated using the formula V=LW2/2 and recorded.

In series [8] the test system is liver cancer cell line SK-Hep-1. The series is described as follows: Cellular localization with MitoTracker, LysoTracker and ER-Tracker. Format: cell-based. As to the method:
The Mitotracker, lysotracker and ER-tracker (Thermo Fisher Scientific) were used to label mitochondria, lysosome and endoplasmic reticulum (ER) respectively. Two measures of correlation, the Pearson correlation coefficient (PCC) and the Mander's overlap coefficient (MOC) were calculated as depicted in the table below.

The subject of series [9] is SK-Hep-1 cell. The series is described as follows: Soft agar colony-formation assay. The series is classed as cell-based. Particulars: 10 ug/ml, 3 J/cm^2, 635-nm laser source. Here is the method:
To estimate the anchorage-independent growth ability of cells treated by PpIX-TF conjugate (referred to herein as TF01), 3×10^4 cells of SK-Hep-1 cell were seeded in 35 mm dish and incubated for 24 h at 37° C. The cells were then treated with a PpIX-TF conjugate (TF01) or medium control. After 24 h incubation, the cells were washed twice with serum-free medium and irradiated at a light intensity of 10 mW/cm^2 using a 635-nm laser source for 5 min. Then, 5000 cells were suspended in 0.3% noble agar and cells were allowed to grow for another 2 weeks. Colonies were stained with 0.02% Giemsa Stain Solution, and documented by scanning.

A short description of series [10]: Cell phototoxicity assay under different dosages of 635-nm laser excitation (FIG. 16). Format: cell-based. To be noted: when laser dosage were increased (635-nm laser, 3 J/cm^2 to 18 J/cm^2). Here is the method:
as §1
When laser dosage were increased, the corresponding IC50 values of PpIX-TF conjugate (TF01) were decreased.

Series [11] is described as follows: Solubility and dispersibility in aqueous buffer. Format: physicochemical. Particulars: compared to PpIX in aqueous Tris-HCl buffer, 20 mM, pH 8.5. Here is the method: Improvement in solubility and dispersibility of the PpIX-TF conjugate was compared to PpIX in aqueous Tris-HCl buffer, 20 mM, pH 8.5 (FIG. 6).

As for `OO` [H2O2, reference compound], in series [1] (100 uM, positive control, HCT116), the “intracellular ROS generation” value is reported as “increase”.

With “Batch 1: exemplary batch of PpIX-TF conjugate (TF01), molar ratio of PpIX to TF protein 0.690”, the emission properties result in series [2] (5 mg/ml (approximately 53 μM PpIX) in Tris-HCl buffer 20 mM, pH 8.5, versus control 60 μM PpIX with 5% DMSO) is reported as “greater”.

Regarding “TF01: conjugate of PpIX and recombinant TF (globin 2αβ2 tetramer); PpIX non-covalently associated with the protein”, the “intracellular ROS generation” value in series [1] (50 um/ml (batch 2), approximately 0.71 uM PpIX, 635-nm laser 10 mW/cm^2 30 min, versus control PpIX 0.75 uM) was “greatly enhance”. In addition, the “quantum yield of ROS” value in [3] was “almost double that of methylene blue”. In addition, in series [4], the “cellular uptake / distribution of fluorescent signals” value was “widely distributed in the cytoplasm”. In addition, in series [2] (50 mM Tris-HCl or potassium phosphate buffer, λmax=625 nm), the “pH dependence of the emission intensity” value is given as “wide pH range”. Also, the “survival rates of the cells” value in series [5] (irradiation 450 nm blue light), in series [5] (irradiation 627 nm red light), in series [6] (irradiation 450 nm blue light) and in [6] (irradiation 627 nm red light) was “markedly decrease” each time. Besides, in series [7], the tumor volume entry is recorded as “tumor regression”. The “Mander's overlap coefficient (MOC)” value is given as 0.6908 in series [8] (Endoplasmic reticulum), 0.4866 in series [8] (Lysosome) and 0.4684 in series [8] (Mitochondria). Also, the “Pearson correlation coefficient (PCC)” value in series [8] (Endoplasmic reticulum) was determined as 0.6076; in series [8] (Lysosome) it was 0.4974; in [8] (Mitochondria) it was 0.4922. The “cancer cell soft agar colony formation” value in [9] is “significantly inhibit”. Besides, the “IC50 values under different dosages of 635-nm laser excitation” value in [10] is recorded as “decreased”. Besides, in series [11], the solubility and dispersibility entry is “Improvement”.
